# Data: patent US20230416228A1 (Forkhead Biotherapeutics, Inc., priority 2020, published 2023)
# Biological target: T1, human FOXO1 (constitutively active form Thr24Ala, Ser256Ala, Ser319Ala) (Homo sapiens, UniProt Q12778, S256A/S319A/T24A)
# T1 construct: expressed in transfected cells; host or cells: HEK293 cells transfected with pcDNA3.1 plasmid
# Assay: FOXO1 inhibitor activity assay: cell-based transcriptional (luciferase) reporter assay in HEK293 cells
# Details: HEK293 cells transfected with insulin response element firefly luciferase reporter, FOXO1 and Renilla luciferase; 10-point dose response 50 μM to 2.5 nM; 24 hours
# Method in brief: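 IC50 and maximal inhibition were fitted by 4-parameter logistic regression on normalized firefly/Renilla luciferase ratios. The 0% reference used RFP in place of FOXO1, and the 100% reference was DMSO-only with all plasmids.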
# T1 sequence (Q12778 whole entry T24A/S256A/S319A): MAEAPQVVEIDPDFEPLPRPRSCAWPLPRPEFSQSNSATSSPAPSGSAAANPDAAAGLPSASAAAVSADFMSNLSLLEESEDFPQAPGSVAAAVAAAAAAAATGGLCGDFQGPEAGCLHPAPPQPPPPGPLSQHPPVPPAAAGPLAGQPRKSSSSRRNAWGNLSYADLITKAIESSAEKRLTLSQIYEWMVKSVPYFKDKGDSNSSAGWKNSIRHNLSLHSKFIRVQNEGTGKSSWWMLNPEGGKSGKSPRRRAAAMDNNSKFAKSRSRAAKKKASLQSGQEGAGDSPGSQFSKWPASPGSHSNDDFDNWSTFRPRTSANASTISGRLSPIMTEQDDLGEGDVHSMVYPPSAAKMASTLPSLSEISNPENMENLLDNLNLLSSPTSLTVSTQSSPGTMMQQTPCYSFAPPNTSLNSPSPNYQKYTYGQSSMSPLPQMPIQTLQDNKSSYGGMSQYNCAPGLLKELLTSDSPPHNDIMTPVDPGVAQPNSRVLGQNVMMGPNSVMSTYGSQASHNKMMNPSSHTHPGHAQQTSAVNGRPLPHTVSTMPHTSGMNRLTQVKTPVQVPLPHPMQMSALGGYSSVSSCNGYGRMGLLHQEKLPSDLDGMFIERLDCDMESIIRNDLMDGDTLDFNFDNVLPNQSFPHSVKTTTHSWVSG
row,SMILES,IC50 [µM]
1,"COC1CCN(c2ccc(C(=O)Nc3cc(-c4nc5cc(F)ccc5[nH]4)n(C)n3)cn2)CC1 [Compound A-153, N-[5-(5-fluoro-1H-benzimidazol-2-yl)-1-methyl-pyrazol-3-yl]-6-(4-methoxy-1-piperidyl)pyridine-3-carboxamide]",0.1 to 0.3
2,COCCN1CCN(c2ccc(C(=O)Nc3cc(-c4nc5cccc(F)c5[nH]4)n(C)n3)cn2)CC1 [Compound A-154],0.1 to 0.3
3,"Cn1nc(NC(=O)c2ccc(N3CCC[C@H]3C(=O)O)nc2)cc1-c1nc2cccc(F)c2[nH]1 [Compound A-155, (2S)-1-[5-[[5-(7-fluoro-1H-benzimidazol-2-yl)-1-methyl-pyrazol-3-yl]carbamoyl]-2-pyridyl]pyrrolidine-2-carboxylic acid]",> 1
4,"O=C(O)CN1CCN(c2ccc(C(=O)Nc3cc(-c4nc5ccccc5[nH]4)[nH]n3)cn2)CC1 [Compound A-156, 2-[4-[5-[[5-(1H-benzimidazol-2-yl)-1H-pyrazol-3-yl]carbamoyl]-2-pyridyl]piperazin-1-yl]acetic acid]",> 1
5,COC1CCN(c2ccc(C(=O)Nc3cc(-c4nc5cccc(F)c5[nH]4)n(C)n3)cn2)CC1 [Compound A-157],0.1 to 0.3
6,Cn1nc(NC(=O)c2ccc(N3CCN(CCO)CC3)nc2)cc1-c1nc2cccc(F)c2[nH]1 [Compound A-158],0.1 to 0.3
7,"COC1CCN(c2ccc(C(=O)Nc3cc(-c4nc5ccccc5[nH]4)[nH]n3)cn2)CC1 [Compound A-159, N-[5-(1H-benzimidazol-2-yl)-1H-pyrazol-3-yl]-6-(4-methoxy-1-piperidyl)-pyridine-3-carboxamide]",< 0.1
8,Cn1nc(NC(=O)c2ccc(N3CCN(C4COC4)CC3)nc2)cc1-c1nc2cc(F)ccc2[nH]1 [Compound A-160],0.3 to 1
9,"COc1ccc2nc(-c3cc(NC(=O)c4ccc(OC)c(Cl)c4)n[nH]3)cn2c1 [Compound A-161, 3-chloro-4-methoxy-N-[5-(6-methoxyimidazo[1,2-a]pyridin-2-yl)-1H-pyrazol-3-yl]benzamide]",0.1 to 0.3
10,"COc1ccn2cc(-c3cc(NC(=O)c4ccc(OC)c(Cl)c4)n[nH]3)nc2c1 [Compound A-162, 3-chloro-4-methoxy-N-[5-(7-methoxyimidazo[1,2-a]pyridin-2-yl)-1H-pyrazol-3-yl]benzamide]",> 1
11,"COc1ccc(C(=O)Nc2cc(-c3cn4ccc(C)cc4n3)[nH]n2)cc1Cl [Compound A-163, 3-chloro-4-methoxy-N-[5-(7-methylimidazo[1,2-a]pyridin-2-yl)-1H-pyrazol-3-yl]benzamide]",0.3 to 1
12,"COCCOc1ccc(C(=O)Nc2cc(-c3nc4cccc(F)c4[nH]3)n(C)n2)cc1Cl [Compound A-164, 3-chloro-N-[5-(7-fluoro-1H-benzimidazol-2-yl)-1-methyl-pyrazol-3-yl]-4-(2-methoxyethoxy)benzamide]",< 0.1
13,"Cn1nc(NC(=O)c2ccc(OCCO)c(Cl)c2)cc1-c1nc2cccc(F)c2[nH]1 [Compound A-165, 3-chloro-N-[5-(7-fluoro-1H-benzimidazol-2-yl)-1-methyl-pyrazol-3-yl]-4-(2-hydroxyethoxy)benzamide]",< 0.1
14,"COCCOc1ccc(C(=O)Nc2cc(-c3nc4cc(F)ccc4[nH]3)n(C)n2)cc1Cl [Compound A-166, 3-chloro-N-[5-(5-fluoro-1H-benzimidazol-2-yl)-1-methyl-pyrazol-3-yl]-4-(2-methoxyethoxy)benzamide]",< 0.1

# The next lines start with the values.
row,IC50 [µM],SMILES
1,< 0.1,"Cn1nc(NC(=O)c2ccc(OCCO)c(Cl)c2)cc1-c1nc2cc(F)ccc2[nH]1 [Compound A-167, 3-chloro-N-[5-(5-fluoro-1H-benzimidazol-2-yl)-1-methyl-pyrazol-3-yl]-4-(2-hydroxyethoxy)benzamide]"
2,0.1 to 0.3,"Cn1nc(NC(=O)c2ccc(N3CCC(N4CCOCC4)CC3)nc2)cc1-c1nc2cc(F)ccc2[nH]1 [Compound A-168, N-[5-(5-fluoro-1H-benzimidazol-2-yl)-1-methyl-pyrazol-3-yl]-6-(4-morpholino-1-piperidyl)pyridine-3-carboxamide]"
3,0.1 to 0.3,"CN(C1CCN(c2ccc(C(=O)Nc3cc(-c4nc5ccccc5[nH]4)[nH]n3)cn2)CC1)S(C)(=O)=O [Compound A-169, N-[5-(1H-benzimidazol-2-yl)-1H-pyrazol-3-yl]-6-[4-[methyl(methyl-sulfonyl)amino]-1-piperidyl]pyridine-3-carboxamide]"
4,0.1 to 0.3,"CC(=O)N(C)C1CCN(c2ccc(C(=O)Nc3cc(-c4nc5ccccc5[nH]4)[nH]n3)cn2)CC1 [Compound A-170, 6-[4-[acetyl(methyl)amino]-1-piperidyl]-N-[5-(1H-benzimidazol-2-yl)-1H-pyrazol-3-yl]pyridine-3-carboxamide]"
5,< 0.1,"O=C(Nc1cc(-c2nc3ccccc3[nH]2)[nH]n1)c1ccc(N2CCN(C3COC3)CC2)nc1 [Compound A-171, N-[5-(1H-benzimidazol-2-yl)-1H-pyrazol-3-yl]-6-[4-(oxetan-3-yl)-piperazin-1-yl]pyridine-3-carboxamide]"
6,< 0.1,"O=C(Nc1cc(-c2nc3ccccc3[nH]2)[nH]n1)c1ccc(N2CCC(N3CCOCC3)CC2)nc1 [Compound A-172, N-[5-(1H-benzimidazol-2-yl)-1H-pyrazol-3-yl]-6-(4-morpholino-1-piperidyl)pyridine-3-carboxamide]"
7,0.1 to 0.3,Cn1nc(NC(=O)c2ccc(N3CCC(N4CCOCC4)CC3)nc2)cc1-c1nc2cccc(F)c2[nH]1 [Compound A-173]
8,< 0.1,"COCCN1CCN(c2ccc(C(=O)Nc3cc(-c4nc5ccccc5[nH]4)[nH]n3)cc2)CC1 [Compound A-174, N-[5-(1H-benzimidazol-2-yl)-1H-pyrazol-3-yl]-4-[4-(2-methoxyethyl)-piperazin-1-yl]benzamide]"
9,> 1,"COCCn1nc(NC(=O)c2ccc(OC)c(Cl)c2)cc1-c1nc2ccccc2[nH]1 [Compound A-175, N-[5-(1H-benzimidazol-2-yl)-1-(2-methoxyethyl)pyrazol-3-yl]-3-chloro-4-methoxy-benzamide]"
10,> 1,"COCCn1nc(NC(=O)c2ccc(N3CC(OC)C3)nc2)cc1-c1nc2ccccc2[nH]1 [Compound A-176, N-[5-(1H-benzimidazol-2-yl)-1-(2-methoxyethyl)pyrazol-3-yl]-6-(3-methoxyazetidin-1-yl)pyridine-3-carboxamide]"
11,> 1,"CN1CCN(c2ccc(C(=O)Nc3cc(-c4nc5ccccc5[nH]4)[nH]n3)nn2)CC1 [Compound A-177, N-[5-(1H-benzimidazol-2-yl)-1H-pyrazol-3-yl]-6-(4-methylpiperazin-1-yl)pyridazine-3-carboxamide]"
12,0.3 to 1,"COCCN1CCN(c2ccc(C(=O)Nc3cc(-c4nc5ccccc5[nH]4)n(CCOC)n3)cn2)CC1 [Compound A-178, N-[5-(1H-benzimidazol-2-yl)-1-(2-methoxyethyl)pyrazol-3-yl]-6-[4-(2-methoxyethyl)piperazin-1-yl]pyridine-3-carboxamide]"
13,0.1 to 0.3,"CN1CCN(c2cnc(C(=O)Nc3cc(-c4nc5ccccc5[nH]4)[nH]n3)cn2)CC1 [Compound A-179, N-[5-(1H-benzimidazol-2-yl)-1H-pyrazol-3-yl]-5-(4-methylpiperazin-1-yl)pyrazine-2-carboxamide]"
14,0.1 to 0.3,"CN1CCN(c2ncc(C(=O)Nc3cc(-c4nc5ccccc5[nH]4)[nH]n3)cn2)CC1 [Compound A-180, N-[5-(1H-benzimidazol-2-yl)-1H-pyrazol-3-yl]-2-(4-methylpiperazin-1-yl)pyrimidine-5-carboxamide]"
